Earlier results, collected in paper PMC11956011, “An Amazing 30-Year Journey around the DABO Family: A Medicinal Chemistry Lesson on a Versatile Class of Non-nucleoside HIV-1 Reverse Transcriptase Inhibitors” (Journal of Medicinal Chemistry, 2025).
Like-named read-outs stand apart in the source and are kept apart here.

Assays:
[1] = system: HIV-1 RT (WT, recombinant); conditions: for IC50: read-out: IC50 (HIV-1 RT)
HIV-1 = conditions: for IC50: read-out: IC50 (HIV-1 cytopathic effect in cells)
L100I HIV-1 RT = conditions: for Fold-resistance L100I RT (ID50): Fig 10, in brackets
[2] = system: K103N HIV-1 mutant strain; conditions: for Fold-resistance K103N (EC50): Fig 10, in brackets
[3] = system: Y181C HIV-1 mutant strain; conditions: for Fold-resistance Y181C (EC50): Fig 10, in brackets
[4] = system: Y188L HIV-1 mutant strain; conditions: for Fold-resistance Y188L (EC50): Fig 10, in brackets
Y181I HIV-1 RT = conditions: for ID50: Y181I: Fig 10; for Fold-resistance Y181I RT (ID50): Fig 10, in brackets
[5] = Fig 5, read-out: EC50: NL4-3 wt
[6] = Fig 10, read-out: EC50: NL4-3 wt
[7] = read-out: EC50 against WT HIV-1

Compound: 2-(cyclopentylthio)-6-[(1R)-1-(2,6-difluorophenyl)ethyl]-5-methyl-4(3H)-pyrimidinone [[+]-38]
- IC50 ([1]; Fig 5, printed without unit): 8 nM
- CC50 (mock-infected cells; Fig 5): > 200000 nM
- EC50 (HIV-1): 2 nM
- SI (HIV-1): > 100000

Compound: CCOCn1c(Cc2ccccc2)c(C(C)C)c(=O)[nH]c1=O [Emivirine, reference compound]
- CC50 (mock-infected cells): 186000 nM
- EC50 (HIV-1; Fig 4): 4.2 nM
- SI (HIV-1; Fig 4): 44000

Compound: Cc1cccc(Cc2cc(=O)[nH]c(OC3CCCCC3)n2)c1 [compound 6]
- SI (HIV-1; CC50/EC50, Fig 3): > 400

Compound: CCC(C)Oc1nc(Cc2cc(C)cc(C)c2)c(C)c(=O)[nH]1 (centres unmarked) [compound 7]
- SI (HIV-1; CC50/EC50, Fig 3): > 400

Compound: Nc1cc(Cl)nc(Sc2ccccc2)n1 [compound 20]
- EC50 (HIV-1; Fig 4): 90000 nM
- SI (HIV-1; Fig 4): 2.3

Compound: CCC(C)Oc1nc(N)cc(S(=O)(=O)c2cccc(C)c2)n1 (centres unmarked) [compound 22]
- CC50 (mock-infected cells; Fig 4): > 200000 nM
- SI (HIV-1; Fig 4): > 43

Compound: CCOC1CSc2nc(=O)c(CC)c(Cc3cc(C)cc(C)c3)n21 (centres unmarked) [compound 24]
- CD50 (mock-infected cells; Fig 4): > 100 µM
- SI (HIV-1; CD50/ED50, Fig 4): > 140
- ED50 (HIV-1; Fig 4): 700 nM

Compound: Nc1nc2c(c(=O)[nH]1)CCC2c1ccccc1 (centres unmarked) [compound 27, 2-amino-7-phenyl-6,7-dihydro-5H-cyclopenta[d]-4(3H)-pyrimidinone]
- anti-HIV-1 activity (in words) (HIV-1): lacked anti-HIV-1 activity

Compound: CCC(C)Sc1nc(O)cc(Cc2c(Cl)cccc2Cl)n1 (centres unmarked) [compound 28]
- IC50 ([1]; Fig 5): 100 nM
- CC50 (mock-infected cells; Fig 5): > 200000 nM
- SI (HIV-1; Fig 5): > 1428

Compound: CCC(C)Sc1nc(O)c(C)c(Cc2c(Cl)cccc2Cl)n1 (centres unmarked) [compound 29]
- IC50 ([1]; Fig 5): 60 nM
- CC50 (mock-infected cells; Fig 5): > 200000 nM
- SI (HIV-1; Fig 5): > 4000

Compound: CCC(C)Sc1nc(O)cc(Cc2c(F)cccc2F)n1 (centres unmarked) [compound 31]
- IC50 ([1]; Fig 5): 50 nM
- CC50 (mock-infected cells; Fig 5): > 200000 nM
- SI (HIV-1; Fig 5): > 5000

Compound: CCC(C)Sc1nc(O)cc(C(C)c2c(F)cccc2F)n1 (centres unmarked) [compound 34]
- CC50 (mock-infected cells; Fig 5): > 200000 nM
- SI (HIV-1; Fig 5): > 6666
- EC50 (HIV-1; Fig 5, MT-4 cells): 30 nM

Compound: CCCCSc1nc(O)c(C)c(C(C)c2c(F)cccc2F)n1 (centres unmarked) [compound 37]
- EC50 (HIV-1; Fig 5, MT-4 cells): 8 nM

Compound: CCCCSc1nc(C(C)c2c(F)cccc2Cl)cc(=O)[nH]1 (centres unmarked) [compound 39]
- ID50: L100I (L100I HIV-1 RT; Fig 5): 600 nM
- ID50: WT ([1]; Fig 5): 10 nM
- EC50 ([2]; Fig 5): 1100 nM
- CC50 (mock-infected cells; Fig 5): > 73000 nM
- EC50 (HIV-1 NL4-3 wt; [5]): 0.3 nM
- EC50 ([3]; Fig 5): 3900 nM
- EC50 ([4]; Fig 5): 5600 nM

Compound: CC(c1cc(=O)[nH]c(SC2CCCC2)n1)c1c(F)cccc1Cl (centres unmarked) [compound 40]
- ID50: L100I (L100I HIV-1 RT; Fig 5): 1100 nM
- ID50: WT ([1]; Fig 5): 15 nM
- EC50 ([2]; Fig 5): 900 nM
- CC50 (mock-infected cells; Fig 5): > 71000 nM
- EC50 (HIV-1 NL4-3 wt; [5]): 0.3 nM
- EC50 ([3]; Fig 5): 3000 nM
- EC50 ([4]; Fig 5): > 71000 nM

Compound: Cc1c(C(C)c2c(F)cccc2Cl)nc(SC(C)C)[nH]c1=O (centres unmarked) [compound 41]
- EC50 ([2]; Fig 5): 140 nM
- CC50 (mock-infected cells; Fig 5): > 15000 nM
- EC50 ([3]; Fig 5): 250 nM
- EC50 ([4]; Fig 5): 3400 nM

Compound: CCCSc1nc(C(C)c2c(F)cccc2Cl)c(C)c(=O)[nH]1 (centres unmarked) [compound 42]
- ID50: L100I (L100I HIV-1 RT; Fig 5): 90 nM
- ID50: WT ([1]; Fig 5): 0.9 nM
- EC50 ([2]; Fig 5): 350 nM
- CC50 (mock-infected cells; Fig 5): > 1500 nM
- EC50 (HIV-1 NL4-3 wt; [5]): 0.05 nM
- EC50 ([3]; Fig 5): 260 nM
- EC50 ([4]; Fig 5): > 1500 nM

Compound: Cc1c(C(C)c2c(F)cccc2Cl)nc(SC2CCCC2)[nH]c1=O (centres unmarked) [compound 43]
- ID50: L100I (L100I HIV-1 RT; Fig 5): 120 nM
- ID50: WT ([1]; Fig 5): 11 nM
- EC50 ([2]; Fig 5): 93 nM
- CC50 (mock-infected cells; Fig 5): > 15000 nM
- EC50 (HIV-1 NL4-3 wt; [5]): 0.03 nM
- EC50 ([3]; Fig 5): 230 nM
- EC50 ([4]; Fig 5): 2900 nM

Compound: Cc1cc(=O)[nH]c(SCCN2C(=O)c3ccccc3C2=O)n1 [compound 74]
- SI (HIV-1; Fig 9): 61.6

Compound: O=C1c2ccccc2C(=O)N1CCSc1nc(Cc2c(F)cccc2F)cc(=O)[nH]1 [compound 75]
- CC50 (mock-infected cells; Fig 9): > 100000 nM
- EC50 (HIV-1; Fig 9): 17000 nM
- SI (HIV-1; Fig 9): > 5.9

Compound: CCc1c(Cc2ccccc2Br)nc(SCc2ccc(OC)cc2)[nH]c1=O [compound 87]
- CC50 (mock-infected cells; Fig 9): 165000 nM
- SI (HIV-1; Fig 9): 717
- IC50 (HIV-1; Fig 9): 230 nM

Compound: CCc1c(Cc2ccccc2Br)nc(SCc2ccc([N+](=O)[O-])cc2)[nH]c1=O [compound 88]
- CC50 (mock-infected cells; Fig 9): > 272000 nM
- SI (HIV-1; Fig 9): > 368
- IC50 (HIV-1; Fig 9): 740 nM

Compound: CCc1c(Cc2cccc(Br)c2)nc(SCc2ccc(OC)cc2)[nH]c1=O [compound 89]
- CC50 (mock-infected cells; Fig 9): 201000 nM
- SI (HIV-1; Fig 9): 718
- IC50 (HIV-1; Fig 9): 280 nM

Compound: CCc1c(Cc2cc(C)cc(C)c2)nc(SCc2ccc(OC)cc2)[nH]c1=O [compound 90]
- CC50 (mock-infected cells; Fig 9): > 317000 nM
- SI (HIV-1; Fig 9): > 2642
- IC50 (HIV-1; Fig 9): 120 nM

Compound: CCc1c(Cc2cc(C)cc(C)c2)nc(SCc2ccc([N+](=O)[O-])cc2)[nH]c1=O [compound 91]
- CC50 (mock-infected cells; Fig 9): > 305000 nM
- SI (HIV-1; Fig 9): > 1906
- IC50 (HIV-1; Fig 9): 160 nM

Compound: CC(=O)c1ccc(Cn2cc(CSc3nc(Cc4c(Cl)cccc4Cl)c(C)c(=O)[nH]3)nn2)cc1 [compound 92]
- EC50 (HIV-1; Fig 9): 3860 nM
- SI (HIV-1; Fig 9): 8

Compound: Cc1c(Cc2c(Cl)cccc2Cl)nc(SCc2cn(Cc3ccc(S(N)(=O)=O)cc3)nn2)[nH]c1=O [compound 93]
- EC50 (HIV-1; Fig 9): 3220 nM
- SI (HIV-1; Fig 9): 30

Compound: COc1ccc(Cn2cc(CSc3nc(Cc4c(Cl)cccc4Cl)c(C)c(=O)[nH]3)nn2)cc1 [compound 94]
- SI (HIV-1; Fig 9): 6

Compound: CCc1c(Cc2c(Cl)cccc2Cl)nc(SCC(=O)c2ccccc2)[nH]c1=O [compound 101]
- ID50: L100I (L100I HIV-1 RT; Fig 10): 3540 nM
- Fold-resistance L100I RT (ID50) (L100I HIV-1 RT): 50
- ID50: WT ([1]; Fig 10): 71 nM
- EC50 ([2]; Fig 10): 1200 nM
- Fold-resistance K103N (EC50) [2]: 171
- ID50: Y181I (Y181I HIV-1 RT): 330 nM
- Fold-resistance Y181I RT (ID50) (Y181I HIV-1 RT): 5
- CC50 (mock-infected cells; Fig 10): > 52000 nM
- EC50 (HIV-1 NL4-3 wt; [6]): 7 nM
- EC50 ([3]; Fig 10): 46 nM
- Fold-resistance Y181C (EC50) [3]: 7
- SI (HIV-1; Fig 10): > 7429
- EC50 ([4]; Fig 10): 5000 nM
- Fold-resistance Y188L (EC50) [4]: 714

Compound: CC(C)c1c(Cc2c(Cl)cccc2Cl)nc(SCC(=O)c2ccccc2)[nH]c1=O [compound 102]
- ID50: L100I (L100I HIV-1 RT; Fig 10): 10100 nM
- Fold-resistance L100I RT (ID50) (L100I HIV-1 RT): 326
- ID50: WT ([1]; Fig 10): 31 nM
- EC50 ([2]; Fig 10): 5100 nM
- Fold-resistance K103N (EC50) [2]: 1275
- ID50: Y181I (Y181I HIV-1 RT): 16800 nM
- Fold-resistance Y181I RT (ID50) (Y181I HIV-1 RT): 542
- CC50 (mock-infected cells; Fig 10): > 56000 nM
- EC50 (HIV-1 NL4-3 wt; [6]): 4 nM
- EC50 ([3]; Fig 10): 110 nM
- Fold-resistance Y181C (EC50) [3]: 27
- SI (HIV-1; Fig 10): > 14000
- EC50 ([4]; Fig 10): 5500 nM
- Fold-resistance Y188L (EC50) [4]: 1375

Compound: Cc1c(Cc2c(Cl)cccc2Cl)nc(SCC(=O)Nc2ccc(Cl)cc2)[nH]c1=O [compound 105]
- CC50 (mock-infected cells; Fig 10): > 267000 nM
- SI (HIV-1; Fig 10): > 836

Compound: Cc1c(Cc2c(Cl)cccc2Cl)nc(SCC(=O)Nc2ccc(Br)cc2)[nH]c1=O [compound 106]
- CC50 (mock-infected cells; Fig 10): > 244000 nM
- SI (HIV-1; Fig 10): > 1326

Compound: Cc1c(Cc2c(Cl)cccc2Cl)nc(SCC(=O)Nc2ccc(F)c(F)c2)[nH]c1=O [compound 108]
- CC50 (mock-infected cells; Fig 10): > 266000 nM
- SI (HIV-1; Fig 10): > 387

Compound: COc1ccc(CSc2nc(C(C)c3c(F)cccc3F)c(C)c(=O)[nH]2)cc1 (centres unmarked) [compound 140, 6-[1-(2,6-difluorophenyl)ethyl]-2-[(4-methoxybenzyl)thio]-5-methyl-4(3H)-pyrimidinone]
- EC50 (HIV-1 NL4-3 wt; [7]): 0.025 nM

Compound: Cc1c(C(C)c2c(F)cccc2F)nc(SCc2ccc(C#N)cc2)[nH]c1=O (centres unmarked) [compound 141]
- EC50 (HIV-1 NL4-3 wt; [7]): 7.8 nM

Compound: Cc1c(C(C)c2c(F)cccc2F)nc(SCc2ccc([N+](=O)[O-])cc2)[nH]c1=O (centres unmarked) [compound 142]
- EC50 (HIV-1 NL4-3 wt; [7]): 3.3 nM

Compound: COc1cc(F)c(C(=O)c2ccnc(Nc3ccc(C#N)cc3)n2)c(F)c1 [compound 169]
- EC50: Y181C ([3]; Fig 12, DAPY-DABO carbonyl hybrids): no activity

Compound: CCN(CC)CCc1cc(=O)[nH]c(SC)n1 [compound 184]
- CC50 (mock-infected cells): 250 µg/mL
